Measured values reported in ChEMBL document CHEMBL3091401, “Discovery of a potent respiratory syncytial virus RNA polymerase inhibitor” (Bioorg Med Chem Lett, 2013).
In brackets after ≈: the same amount, converted by molar mass.

What was measured:
[1] = Aqueous solubility of the compound; format: physicochemical; details: buffer
[2] = tested on: Respiratory syncytial virus; experiment: Antiviral activity against Respiratory syncytial virus B-Washington infected in human Hep2 cells after 3 days by ELISA; format: functional, organism-based; details: HEp-2, 72 h
[3] = Cytotoxicity against hamster BHK21 cells; format: cell-based, Mesocricetus auratus, BHK-21
[4] = tested on: Respiratory syncytial virus; experiment: Antiviral activity against Respiratory syncytial virus A2 infected in human Hep2 cells after 3 days by ELISA; format: functional, organism-based; details: A2, HEp-2, 72 h
[5] = tested on: Respiratory syncytial virus; experiment: Antiviral activity against Respiratory syncytial virus A2 infected in hamster BHK21 cells after 2 days by luciferase reporter gene assay; format: functional, organism-based; details: human respiratory syncytial virus, A2, BHK-21, 48 h
[6] = Cytotoxicity against human Hep2 cells; format: cell-based, HEp-2
[7] = Absorption half life in rat lungs at 10 ug/kg administered intratracheally as solution; format: ADME, tissue-based; details: lung, inhaled or intranasal, 0.01 mg/kg, read-out: t1/2abs

Compound | solubility [1] | EC50 [2] | CC50 [3] | EC50 [4] | EC50 [5] | CC50 [6] | half-life [7]
O=C(NC1CC1)c1cc2c(s1)-c1cccnc1N(C(=O)c1ccc(NC(=O)c3cccnc3N3CCCC3)cc1)CC2 | 10 µM (≈ 5.79 µg/mL) | > 50 µM | > 50 µM | 7.8 µM | 8.6 µM | – | –
O=C(NC1CC1)c1cc2n(n1)CCN(C(=O)c1ccc(NC(=O)c3cccnc3N3CCCC3)cc1)c1ccccc1-2 | 32 µM (≈ 18 µg/mL) | 50 µM | > 50 µM | 20 µM | 9 µM | – | –
O=C(NC1CC1)c1cn2c(n1)-c1ccccc1N(C(=O)c1ccc(NC(=O)c3cccnc3N3CCCC3)cc1)CC2 | 121 µM (≈ 68 µg/mL) | 50 µM | > 50 µM | 50 µM | 22 µM | – | –
O=C(NC1CC1)c1cc2c(s1)-c1ccccc1N(C(=O)c1ccc(NC(=O)c3cccnc3N3CCOCC3)cc1)CC2 | 36 µM (≈ 21.4 µg/mL) | 17 µM | – | 0.23 µM | 0.63 µM | > 50 µM | –
O=C(NC1CC1)c1cc2c(s1)-c1ccccc1N(C(=O)c1ccc(NC(=O)c3cccnc3N3CCN(CCO)CC3)cc1)CC2 | 40 µM (≈ 25.5 µg/mL) | > 50 µM | – | 8 µM | 13 µM | > 50 µM | –
O=C(NC1CC1)c1cc2c(s1)-c1ccccc1N(C(=O)c1ccc(NC(=O)c3cccnc3N3CC[S+]([O-])CC3)cc1)CC2 | 26 µM (≈ 16.3 µg/mL) | > 50 µM | – | 9.6 µM | 12 µM | > 50 µM | –
O=C(NC1CC1)c1cc2c(s1)-c1ccccc1N(C(=O)c1ccc(NC(=O)c3cccnc3N3CCS(=O)(=O)CC3)cc1)CC2 | 4 µM (≈ 2.57 µg/mL) | > 50 µM | – | 2.2 µM | 3.6 µM | > 50 µM | –
CN(C)CC1(O)CN(c2ncccc2C(=O)Nc2ccc(C(=O)N3CCc4cc(C(=O)NC5CC5)sc4-c4ccccc43)cc2)C1 | > 100 µM | > 50 µM | – | > 50 µM | > 50 µM | > 50 µM | –
O=C(NC1CC1)c1cc2c(s1)-c1ccccc1N(C(=O)c1ccc(NC(=O)c3cccnc3N3CCC4(CC3)COC4)cc1)CC2 | 2 µM (≈ 1.27 µg/mL) | 1 µM | – | 0.01 µM | 0.01 µM | > 50 µM | < 1 min
CN1CC2(CCN(c3ncccc3C(=O)Nc3ccc(C(=O)N4CCc5cc(C(=O)NC6CC6)sc5-c5ccccc54)cc3)CC2)C1 | 55 µM (≈ 35.6 µg/mL) | 17 µM | – | 34 µM | 8.5 µM | 34 µM | –
CC(=O)N1CC2(CCN(c3ncccc3C(=O)Nc3ccc(C(=O)N4CCc5cc(C(=O)NC6CC6)sc5-c5ccccc54)cc3)CC2)C1 | 4 µM (≈ 2.7 µg/mL) | 39 µM | – | 5.3 µM | 9 µM | 34 µM | –
O=C(NC1CC1)c1cc2c(s1)-c1ccccc1N(C(=O)c1ccc(NC(=O)c3cccnc3N3CCCC3)cc1)CC2 | < 1 µM | > 50 µM | > 50 µM | 0.15 µM | 0.31 µM | > 50 µM | –
O=C(NC1CC1)c1cc2c(s1)-c1ccccc1N(C(=O)c1ccc(NC(=O)c3cccnc3N3CCCC3)cn1)CC2 | 3 µM (≈ 1.74 µg/mL) | > 50 µM | > 50 µM | 2.4 µM | 3.7 µM | – | –
